Laboratory results reported in US11842798B2, “Natural product and genetic data analysis and discovery system, method and computational platform therefor” (priority 2015, dated 2023).
Entries after “also recorded” stand apart in the source; their conditions may differ. Where two headings read alike, the source gives them in different places. Numbered stars: 1 amine (or outer) side, 2 acyl side, 3 side chain; on linkers, the order of the positions; unused ones are H or OH. Bridge positions count the residues as written; N and C are the ends. Square brackets hold non-standard residues; d marks the D form. Peptide text beside a SMILES is read from it. X1 = O=C(/C(=C\c1c[nH]c2ccccc12)N[*:1])[*:2]; X2 = CC(c1c[nH]c2ccccc12)C(N[*:1])C(=O)[*:2]; βAsp = O=C(O)[CH](CC(=O)[*:2])N[*:1]

What was measured:
[1] = system: Sensitive and resistant strains; experiment: MICs of telomycin antibiotics (FIG. 46); type: cell-based
Experimental: (§1) FIG. 46 summarizes MICs of telomycin antibiotics (1-10). Sensitive and resistant strains were exposed to telomycins and MICs were measured by microdilution in CAMHB. MICs were determined after 16 h growth, and are shown in μg ml−1.
(§2) Minimum inhibitory concentrations (MICs) for telomycins were determined using broth microdilution in cation-adjusted Mueller Hinton broth (CAMHB). Bacillus subtilis strains were cultured at 28° C., and S. aureus strains were cultured at 37° C. […] For assessing the impact of treating strains with sodium chloride concentrations prior to telomycin, S. aureus was grown overnight in CAMHB containing 0, 0.5, 1, or 1.5 M NaCl and then MICs were recorded as described above.

[2] = system: Telomycin-resistant bacteria; experiment: MIC by broth microdilution, telomycin-resistant strains; type: cell-based, S. aureus and B. subtilis; details: for activity against resistant strains: compared with telomycin A against sensitive strains
Experimental: as §1, §2
To identify mutations that conferred resistance to telomycin, we isolated colonies of S. aureus Newman that appeared inside the zone of inhibition observed during telomycin disk diffusion assays. […] Genomic DNA was extracted from highly resistant isolates and their sensitive parental strain, and sequenced with an Illumina MiSeq platform. Sequences were compared using BreSeq, which exclusively identified mutations in the predominant, house-keeping cardiolipin synthase (cls2). Bacillus subtilis telomycin-resistant mutants were identified in a similar manner, and mutations in cardiolipin synthase were confirmed by sequencing PCR products of the two cardiolipin synthase genes: clsA and clsB. […] PCR primers used for the amplification of B. subtilis cardiolipin synthase genes are as follows— • clsAF: 5′-[…]-3′ (SEQ ID NO: 1); • clsAR: 5′-[…]-3′ (SEQ ID NO: 2); • clsBF: 5′-[…]-3′ (SEQ ID NO: 3); • clsBR: 5′-[…]-3′ (SEQ ID NO: 4). Structure Elucidation

S. aureus [3] = experiment: MIC by broth microdilution in CAMHB; type: cell-based
Experimental: as §2
(§3) (a) Structure of telomycin. […] Wild type S. aureus (OD 0.2) was exposed to 8 (1×MIC) or 256 μg ml^−1 (32×MIC) telomycin. Colony-forming units (CFUs) were taken before treatment (black) and after 90 min (white). Results are shown as ±s.d.; n=4; Two-tailed students t-test. P=0.0023. Data are representative of three independent experiments.

HEK293 cells = experiment: Cytotoxicity assay (Alamar Blue); type: cell-based, human; details: HEK293, 48 h
Experimental: HEK293 cells were obtained from the American Type Culture Collection (ATCC; ATCC CRL-1573) and maintained in Minimal Essential Media (MEM) Alpha modifications supplemented with 10% fetal bovine serum. […] Cells were cultured in 96-well plates containing 200 μL of media and 5000 cells per well. After 3 h of incubation, cells were treated with a serial dilution of telomycin A. Experiments were performed in duplicate with DMSO as a negative control and mitomycin C as a positive control. After 48 h incubation, 10% (22 μL) Alamar Blue (Life Technologies) was added and incubated with cells for 4 h at 37° C. Fluorescence was measured at an excitation wavelength of 530 nm and an emission wavelength of 590 nm and compared to a no-drug control.

B. subtilis [4] = experiment: Colony forming unit (CFU) lysis assay; type: cell-based; details: concentrations above the MIC
Experimental: (§4) Cultures of S. aureus and B. subtilis were grown overnight in CAMHB. Starter cultures were used to inoculate fresh media and were grown to OD=0.2, after which they were transferred to 96-well plates. Cultures were serially diluted and plated on CAMHB agar to determine initial colony-forming units. Telomycin dissolved in DMSO was added to each well (1:100) and incubated for 90 min, followed by serial dilution and plating to determine colony-forming units. Results are shown as ±s.d.; n=4; Two-tailed students t-test.
(§5) (a) Mutating cardiolipin synthase provides spontaneous telomycin resistance. Wild type and spontaneously-resistant S. aureus (left) and B. subtilis (right) were exposed to 32×MIC concentrations of telomycin for 90 min. CFUs were taken before treatment (black) and after 90 min (white). Results are shown as ±s.d.; n=4; Two-tailed students t-test. P=0.0018. Data are representative of three independent experiments. […] Telomycin (final concentration 5 mM; 6.3 mg ml^−1) was mixed with CL, PG, PE, or PC at concentrations ranging from 0.125 to 5 mg ml^−1. Mixtures were incubated for 5 min before turbidity was measured using absorbance at 600 nm. […] Telomycin (0.1 mM) was exposed to lipids at concentrations ranging from 1 to 0.05 mM, then used to determine MICs against wild type B. subtilis. […] (d) Cardiolipin abolishes telomycin's antibacterial activity. […]

[5] = Turbidity of telomycin-lipid mixtures; type: binding; details: telomycin mixed with cardiolipin, absorbance at 600 nm, other lipids as contrast
Experimental: To measure the turbidity of telomycin-lipid mixtures, telomycin was dissolved in methanol at a concentration of 12.8 mg/mL, and cardiolipin (Sigma Aldrich; C0563; 98% pure), phosphatidylglycerol (Sigma Aldrich; 63371; ≥98% pure), phosphatidylcholine (Sigma Aldrich; P3556; ≥99% pure), and phosphatidylethanolamine (Sigma Aldrich; P7943; 97% pure) were dissolved in methanol at a concentration of 10 mg/mL. 20 μL of telomycin was mixed with 20, 10, 5, 1, or 0.5 μL of each lipid (final reaction volume 40 μL) in a flat-bottom polystyrene 96-well plate. Optical density (OD=600 nm) was measured after 10 min.
(§6) (a) Mutating cardiolipin synthase provides spontaneous telomycin resistance. Wild type and spontaneously-resistant S. aureus (left) and B. subtilis (right) were exposed to 32×MIC concentrations of telomycin for 90 min. CFUs were taken before treatment (black) and after 90 min (white). Results are shown as ±s.d.; n=4; Two-tailed students t-test. P=0.0018. Data are representative of three independent experiments. […] Telomycin (final concentration 5 mM; 6.3 mg ml^−1) was mixed with CL, PG, PE, or PC at concentrations ranging from 0.125 to 5 mg ml^−1. Mixtures were incubated for 5 min before turbidity was measured using absorbance at 600 nm. […] Telomycin (0.1 mM) was exposed to lipids at concentrations ranging from 1 to 0.05 mM, then used to determine MICs against wild type B. subtilis. […]

[6] = system: Telomycin-resistant bacteria; experiment: CFU lysis assay on spontaneously-resistant strains; type: cell-based, S. aureus and B. subtilis; details: 32×MIC, 90 min
Experimental: as §4, §5

B. subtilis [7] = experiment: Bioactivity of telomycin-lipid mixtures in liquid media (MIC); type: cell-based
Experimental: To assess the impact of various lipids on telomycin's antibacterial activity in liquid media, telomycin was dissolved in methanol at 12.8 mg/mL (approx. 10 mM) and 1 μL was added to a 96-well plate. Lipids were dissolved in methanol and 10 μL of 10, 5, 2, 1, or 0.5 mM lipid was added to each telomycin-containing well. CAMHB inoculated with B. subtilis was added to each well and serially diluted to determine the minimum inhibitory concentration of each telomycin-lipid mixture. Plates were incubated shaking at 28° C. for 16 h.
as §5

sheep red blood cell = experiment: Red blood cell (RBC) hemolysis assay; type: cell-based; details: 0.25% sheep RBC, 256 to 2 μg/mL, 1 h, 37° C.
Experimental: Hemolytic activity of telomycin was measured against a 0.25% sheep red blood cell (RBC, Fisher Scientific) suspension in phosphate-buffered saline. Telomycin was serially diluted from 256 to 2 μg/mL and incubated with the RBC suspension for 1 h at 37° C. in a polypropylene 96-well plate with conical wells. After 1 h, RBCs were pelleted (1000×g for 5 min) and the supernatant was transferred to a flat-bottom polystyrene 96-well plate, measuring absorbance at 540 nm. 1% Triton X-100 was used as a positive control, while DMSO alone and RBCs alone were used as negative controls.
A solution of 0.25% sheep red blood cell suspension in phosphate buffered saline was incubated for 1 h at 37° C. with either a serial dilution of telomycin, 1% Triton X100 (positive lysis control), DMSO alone (1%; negative lysis control), or without added content (negative lysis control). After 1 h RBCs were pelleted and lysis was assessed by measuring absorbance of the supernatant at 540 nm.

B. subtilis [8] = experiment: Bioactivity of telomycin-lipid mixtures on solid agar (diffusion disks); type: cell-based; details: excess cardiolipin (2× molar equivalent)
Experimental: To assess the impact of various lipids on telomycin's antibacterial activity on solid agar, 10 μL of 10 mM telomycin was mixed with 10 μL of 20 mM cardiolipin (Sigma Aldrich; C0563; ≥98% pure), phosphatidylglycerol (Sigma Aldrich; 63371; ≥98% pure), phosphatidylcholine (Sigma Aldrich; P3556; ≥99% pure), or phosphatidylethanolamine (Sigma Aldrich; P7943; ≥97% pure). All compounds were dissolved in methanol. Mixtures were incubated for 10 min, then added to diffusion disks, allowed to dry, then placed on a CAMHB agar plate with B. subtilis as an indicator organism. The plate was incubated overnight at 28° C.
as §6

S. aureus [9] = experiment: Colony forming unit (CFU) lysis assay; type: cell-based
Experimental: as §4, §3
(a) Mutating cardiolipin synthase provides spontaneous telomycin resistance. Wild type and spontaneously-resistant S. aureus (left) and B. subtilis (right) were exposed to 32×MIC concentrations of telomycin for 90 min. CFUs were taken before treatment (black) and after 90 min (white). Results are shown as ±s.d.; n=4; Two-tailed students t-test. P=0.0018. Data are representative of three independent experiments. […] Mixtures were incubated for 5 min before turbidity was measured using absorbance at 600 nm. […]

[10] = in vivo, cited from earlier work
[11] = system: Chinese Hamster ovary (CHO) cells; details: previous studies; cited from earlier work
Gram positive organisms = details: cited from earlier work

## N-carboxyfluorescein telomycin [fluorescein-labelled telomycin conjugate]
[1]
  antimicrobial activity relative to telomycin: slight decrease

## di-5-methyltryptophan telomycin
[2]
  activity against resistant strains: comparable with the activity of telomycin A against sensitive strains

## telomycin A
S. aureus [3]; S. aureus grown in CAMHB with 0, 0.5, 1, or 1.5 M NaCl
  telomycin activity after growth in high salinity: improved
S. aureus [3]; Wild type S. aureus
  MIC: 8 µg/mL
HEK293 cells
  cytotoxicity: not observed at concentrations up to: > 128 µg/mL
B. subtilis [4]
  lysis of bacteria: rapid lysis
[5]
  turbidity / precipitation with cardiolipin: rapidly formed an opaque precipitant in a dose-dependent manner
[5]; listed as Telomycin
  turbidity / precipitation with cardiolipin: uniquely and rapidly acquire turbidity
[6]
  lysis of telomycin-resistant bacteria: refractory to lysis
B. subtilis [7]; phosphatidylglycerol in 10× molar excess
  effect of phosphatidylglycerol on antibacterial activity of telomycin: some protective effect
B. subtilis [7]; telomycin 0.1 mM, lipids 1 to 0.05 mM
  effect of cardiolipin on antibacterial activity of telomycin (MIC): reduces telomycin's antibacterial activity in a dose-dependent manner
Sheep red blood cell
  hemolysis: not hemolytic; also recorded: does not cause hemolysis
Sheep red blood cell; listed as Telomycin
  hemolysis: not hemolytic; also recorded: does not Cause Hemolysis
B. subtilis [8]
  effect of cardiolipin on antibacterial activity of telomycin: completely abolish; also recorded: abolishes
S. aureus [9]; concentrations above the MIC
  lysis of bacteria: rapid lysis
S. aureus [9]; wild type S. aureus OD 0.2, 256 μg ml^−1 (32×MIC), 90 min
  lysis (CFUs before and after treatment): lyses S. aureus at high concentrations
[2]; telomycin-resistant bacteria generated with limited passaging, versus sensitive parent
  increase in MIC: 16 fold
[10]
  efficacy in animal studies: demonstrated efficacy; also recorded: demonstrated value in vivo
  toxicity in animals / mammals: without apparent toxicity
[10]; listed as Telomycin
  toxicity in animals / mammals: not known to possess significant toxicity
[11]
  toxicity: not observed at concentrations up to: > 40 µg/mL

## LL-AO341β
Gram positive organisms
  activity relative to telomycin: improved activity
Gram positive organisms; previous observations
  cross-resistance with other antibacterial agents: does not demonstrate cross-resistance

## CC(C)CC1NC(=O)C(C(C)c2c[nH]c3ccccc23)NC(=O)/C(=C\c2c[nH]c3ccccc23)NC(=O)C2CCCN2C(=O)CNC(=O)C(C)NC(=O)C(C(C)O)NC(=O)C(NC(=O)C(CO)NC(=O)CC(N)C(=O)O)C(C)OC(=O)C2CCCN2C1=O (stereo not drawn) [telomycin F] (βAsp-STTAGP[X1][X2]LP; ester 2-C; configuration not given here)
[2]
  activity against resistant strains: comparable with the activity of telomycin A against sensitive strains
